Measurements taken from US20260053932A1, “COMPOUNDS AND METHODS FOR THE TARGETED DEGRADATION OF ANDROGEN RECEPTOR AND ASSOCIATED METHODS OF USE” (Arvinas Operations, Inc., priority 2020, published 2026).

Tested on: androgen receptor (AR) in LNCaP and/or VCaP cells
Assay: Androgen Receptor ELISA assay (AR degradation)
Type: cell-based
Conditions: degradation of AR ELISA in LNCaP and/or VCaP cells; Table 2C; read-out: DC50 Code*
Method in brief: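 VCaP cells grown ≥3 days, then treated 5 h with compound in media containing 1 nM R1881 (10× stock). Cells lysed and AR quantified by sandwich ELISA (mouse AR detection Ab, HRP anti-mouse, TMB). DC50 and Dmax derived from AR degradation.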

| Structure (SMILES) | DC50 [nM] |
| --- | --- |
| CC(C)N(CC1CC2(C1)CN(c1ncc(C(=O)N[C@H]3C(C)(C)[C@H](Oc4ccc(C#N)c(Cl)c4)C3(C)C)cn1)C2)[C@H]1C[C@H](Oc2ccc3c(c2)C(=O)N(C2CCC(=O)NC2=O)C3=O)C1 (stereo partly drawn) [compound 87, N-((1r,3r)-3-(3-chloro-4-cyanophenoxy)-2,2,4,4-tetramethylcyclobutyl)-2-(6-((((1r,3r)-3-((2-(2,6-dioxopiperidin-3-yl)-1,3-dioxoisoindolin-5-yl)oxy)cyclobutyl) (isopropyl)amino)methyl)-2-azaspiro[3.3]heptan-2-yl)pyrimidine-5-carboxamide] | < 1 |
| Cc1cc(O[C@H]2C(C)(C)[C@H](NC(=O)c3cnc(N4CCC(CN(C(C)C)[C@H]5C[C@H](Oc6cccc7c6C(=O)N(C6CCC(=O)NC6=O)C7=O)C5)CC4)nc3)C2(C)C)cc(C)c1C#N (stereo partly drawn) [compound 88, N-((1r,3r)-3-(4-cyano-3,5-dimethylphenoxy)-2,2,4,4-tetramethylcyclobutyl)-2-(4-((((1r,3r)-3-((2-(2,6-dioxopiperidin-3-yl)-1,3-dioxoisoindolin-4-yl)oxy)cyclobutyl) (isopropyl)amino)methyl)piperidin-1-yl)pyrimidine-5-carboxamide] | < 1 |
| COCCOCCN(CC1CCN(c2ncc(C(=O)N[C@H]3C(C)(C)[C@H](Oc4cc(C)c(C#N)c(C)c4)C3(C)C)cn2)CC1)[C@H]1C[C@H](Oc2ccc3c(c2)C(=O)N(C2CCC(=O)NC2=O)C3=O)C1 (stereo partly drawn) [compound 89, N-((1r,3r)-3-(4-cyano-3,5-dimethylphenoxy)-2,2,4,4-tetramethylcyclobutyl)-2-(4-((((1r,3r)-3-((2-(2,6-dioxopiperidin-3-yl)-1,3-dioxoisoindolin-5-yl)oxy)cyclobutyl)(2-(2-methoxyethoxy)ethyl)amino)methyl)piperidin-1-yl)pyrimidine-5-carboxamide] | < 1 |
| Cc1cc(O[C@H]2C(C)(C)[C@H](NC(=O)c3cnc(N4CCC(CN(CCN5CCOCC5)[C@H]5C[C@H](Oc6ccc7c(c6)C(=O)N(C6CCC(=O)NC6=O)C7=O)C5)CC4)nc3)C2(C)C)cc(C)c1C#N (stereo partly drawn) [compound 90, N-((1r,3r)-3-(4-cyano-3,5-dimethylphenoxy)-2,2,4,4-tetramethylcyclobutyl)-2-(4-((((1r,3r)-3-((2-(2,6-dioxopiperidin-3-yl)-1,3-dioxoisoindolin-5-yl)oxy)cyclobutyl)(2-morpholinoethyl)amino)methyl)piperidin-1-yl)pyrimidine-5-carboxamide] | < 1 |
| COCCN(CC1CCN(c2ncc(C(=O)N[C@H]3C(C)(C)[C@H](Oc4cc(C)c(C#N)c(C)c4)C3(C)C)cn2)CC1)[C@H]1C[C@H](Oc2ccc3c(c2)C(=O)N(C2CCC(=O)NC2=O)C3=O)C1 (stereo partly drawn) [compound 91, N-((1r,3r)-3-(4-cyano-3,5-dimethylphenoxy)-2,2,4,4-tetramethylcyclobutyl)-2-(4-((((1r,3r)-3-((2-(2,6-dioxopiperidin-3-yl)-1,3-dioxoisoindolin-5-yl)oxy)cyclobutyl)(2-methoxyethyl)amino)methyl)piperidin-1-yl)pyrimidine-5-carboxamide] | < 1 |
| CC(C)N(C[C@H]1C2CN(c3ncc(C(=O)N[C@H]4C(C)(C)[C@H](Oc5ccc(C#N)c(Cl)c5)C4(C)C)cn3)C[C@H]21)[C@H]1C[C@H](Oc2ccc3c(c2)C(=O)N(C2CCC(=O)NC2=O)C3=O)C1 (stereo partly drawn) [compound 92, N-((1r,3S)-3-(3-chloro-4-cyanophenoxy)-2,2,4,4-tetramethylcyclobutyl)-2-((1S,5S)-6-((((1r,3S)-3-((2-(2,6-dioxopiperidin-3-yl)-1,3-dioxoisoindolin-5-yl)oxy)cyclobutyl) (isopropyl)amino)methyl)-3-azabicyclo[3.1.0]hexan-3-yl)pyrimidine-5-carboxamide] | < 1 |
| COc1cc(O[C@H]2C(C)(C)[C@H](NC(=O)c3cnc(N4CCC(CN5CC(Oc6ccc7c(c6)C(=O)N(C6CCC(=O)NC6=O)C7=O)C5)CC4)cn3)C2(C)C)ccc1C#N (stereo partly drawn) [compound 93, N-((1r,3r)-3-(4-cyano-3-methoxyphenoxy)-2,2,4,4-tetramethylcyclobutyl)-5-(4-((3-((2-(2,6-dioxopiperidin-3-yl)-1,3-dioxoisoindolin-5-yl)oxy)azetidin-1-yl)methyl)piperidin-1-yl)pyrazine-2-carboxamide] | < 1 |
| COCCN(CC1CCN(c2ccc(C(=O)N[C@H]3C(C)(C)[C@H](Oc4ccc(C#N)c(OC)c4)C3(C)C)cc2)CC1)[C@H]1C[C@H](Oc2cc(OC)c3c(c2)C(=O)N(C2CCC(=O)NC2=O)C3=O)C1 (stereo partly drawn) [compound 94, N-((1r,3r)-3-(4-cyano-3-methoxyphenoxy)-2,2,4,4-tetramethylcyclobutyl)-4-(4-((((1r,3r)-3-((2-(2,6-dioxopiperidin-3-yl)-7-methoxy-1,3-dioxoisoindolin-5-yl)oxy)cyclobutyl)(2-methoxyethyl)amino)methyl)piperidin-1-yl)benzamide] | < 1 |

Results, then the molecule that gave them:

| DC50 [nM] | Structure (SMILES) |
| --- | --- |
| < 1 | CC(C)N(CC1CCN(c2ncc(C(=O)N[C@H]3C(C)(C)[C@H](Oc4ccc(C#N)c(Cl)c4)C3(C)C)cn2)CC1)[C@H]1C[C@H](Oc2ccc3c(c2)C(=O)N(C2CCC(=O)NC2=O)C3)C1 (stereo partly drawn) [compound 95, N-((1r,3r)-3-(3-chloro-4-cyanophenoxy)-2,2,4,4-tetramethylcyclobutyl)-2-(4-((((1r,3r)-3-((2-(2,6-dioxopiperidin-3-yl)-3-oxoisoindolin-5-yl)oxy)cyclobutyl) (isopropyl)amino)methyl)piperidin-1-yl)pyrimidine-5-carboxamide] |
| < 1 | COCCN(CC1CCN(c2ccc(C(=O)N[C@H]3C(C)(C)[C@H](Oc4cc(C)c(C#N)c(C)c4)C3(C)C)cc2)CC1)[C@H]1C[C@H](Oc2ccc3c(c2)C(=O)N(C2CCC(=O)NC2=O)C3=O)C1 (stereo partly drawn) [compound 96, N-((1r,3r)-3-(4-cyano-3,5-dimethylphenoxy)-2,2,4,4-tetramethylcyclobutyl)-4-(4-((((1r,3r)-3-((2-(2,6-dioxopiperidin-3-yl)-1,3-dioxoisoindolin-5-yl)oxy)cyclobutyl)(2-methoxyethyl)amino)methyl)piperidin-1-yl)benzamide] |
| < 1 | Cc1cc(O[C@H]2C(C)(C)[C@H](NC(=O)c3cnc(N4CCC(CN(CC(F)F)[C@H]5C[C@H](Oc6ccc7c(c6)CN(C6CCC(=O)NC6=O)C7=O)C5)CC4)nc3)C2(C)C)cc(C)c1C#N (stereo partly drawn) [compound 97, N-((1r,3r)-3-(4-cyano-3,5-dimethylphenoxy)-2,2,4,4-tetramethylcyclobutyl)-2-(4-(((2,2-difluoroethyl)((1r,3r)-3-((2-(2,6-dioxopiperidin-3-yl)-1-oxoisoindolin-5-yl)oxy)cyclobutyl)amino)methyl)piperidin-1-yl)pyrimidine-5-carboxamide] |
| < 1 | COc1cc(O[C@H]2C(C)(C)[C@H](NC(=O)c3cnc(N4CCC(CN(C(C)C)[C@H]5C[C@H](Oc6cc(OC)c7c(c6)C(=O)N(C6CCC(=O)NC6=O)C7=O)C5)CC4)cn3)C2(C)C)ccc1C#N (stereo partly drawn) [compound 98, N-((1r,3r)-3-(4-cyano-3-methoxyphenoxy)-2,2,4,4-tetramethylcyclobutyl)-5-(4-((((1r,3r)-3-((2-(2,6-dioxopiperidin-3-yl)-7-methoxy-1,3-dioxoisoindolin-5-yl)oxy)cyclobutyl) (isopropyl)amino)methyl)piperidin-1-yl)pyrazine-2-carboxamide] |
